In US20260070945A1, “MACROCYCLIC IMMUNOMODULATORS” (Bristol-Myers Squibb Company, priority 2022, published 2026) one finds IC50 data, which are given here for nine compounds.

Where a SMILES comes first, the peptide text is derived from it. Bridges are numbered along the chain shown (N, C = ends). [ ]: non-standard residue; d: D form. The star is where a group is joined. Bip = N[C@@H](Cc1ccc(-c2ccccc2)cc1)C(=O)O; Phe(3-Me) = Cc1cccc(C[C@H](N)C(=O)O)c1; mTyr = N[C@@H](Cc1cccc(O)c1)C(=O)O; Cha = N[C@@H](CC1CCCCC1)C(=O)O; Carboxymethyl = O=C(O)C*; NMeA = CN[C@@H](C)C(=O)O; Orn = NCCC[C@H](N)C(=O)O; Aun = NCCCCCCCCCCC(=O)O; Dab = NCC[C@H](N)C(=O)O; Dap = NC[C@H](N)C(=O)O; AEEA = NCCOCCOCC(=O)O; Ac3c = NC1(C(=O)O)CC1

For orientation: IC50 means the point on the concentration scale where inhibition reaches its midpoint.

In the assay the target is T1, PD-1/PD-L1 interaction (PE-labeled human PD-L1-Ig binding to Jurkat cell line over-expressing human PD-1) (Homo sapiens, UniProt Q15116).
T1 construct: expressed in transfected cells; host or cells: Jurkat
T1 sequence (Q15116 25-288): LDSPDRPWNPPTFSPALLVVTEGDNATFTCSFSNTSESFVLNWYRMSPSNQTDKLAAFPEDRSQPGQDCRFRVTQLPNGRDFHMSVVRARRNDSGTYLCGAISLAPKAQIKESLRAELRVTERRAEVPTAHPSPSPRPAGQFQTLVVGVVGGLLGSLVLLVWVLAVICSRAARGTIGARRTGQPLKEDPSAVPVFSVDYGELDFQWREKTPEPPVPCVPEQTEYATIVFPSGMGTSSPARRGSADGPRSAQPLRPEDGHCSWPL
The assay is described as follows: Jurkat-PD-1 Cell Binding High-Content Screening Assay (CBA). The conditions noted are these: Jurkat-hPD-1 cells, PE-labeled PD-L1-Ig 20 nM final; read-out: Jurkat HPD1 PDL1 IC50. Summed up:
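Binding of 20 nM (final) PE-tagged PD-L1-Ig to compound-pretreated Jurkat-hPD-1 cells was measured by high-content imaging after 1 h. Pretreatment ran 2 h at 37 °C in DMEM with 10% fetal calf serum.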
As for `Cc1cccc(C[C@@H]2NC(=O)[C@H](CC(=O)O)NC(=O)[C@H](Cc3ccc(OCC(=O)O)cc3)NC(=O)[C@H](Cc3ccc(OCC(=O)O)cc3)NC(=O)CSC[C@@H](C(=O)NC3(C(=O)NCCOCCOCC(=O)NCCCCCCCCCCC(=O)O)CC3)NC(=O)[C@H](CCCNC(=N)N)NC(=O)[C@H](C(C)C)NC(=O)[C@H](CC3CCCCC3)NC(=O)[C@H](CCN)NC(=O)[C@@H](CC(C)C)NC(=O)[C@H](C)N(C)C(=O)[C@H](C(C)C)NC(=O)[C@H](Cc3ccc(-c4ccccc4)cc3)NC(=O)[C@H](CC(C)C)NC2=O)c1` [Example 1250] ({CH2CO}-Y(Carboxymethyl)Y(Carboxymethyl)D[Phe(3-Me)]L[Bip]V[NMeA][dL][Dab][Cha]VRC[Ac3c][AEEA][Aun]-OH; thioether N-14), the IC50 worked out at 2.8 nM. Regarding `Cc1cccc(C[C@@H]2NC(=O)[C@H](CC(=O)O)NC(=O)[C@H](Cc3ccc(OCC(=O)O)cc3)NC(=O)[C@H](Cc3ccc(OCC(=O)O)cc3)NC(=O)CSC[C@@H](C(=O)NC3(C(=O)NCCOCCOCC(=O)NCCCCCCCCCCC(=O)O)CC3)NC(=O)[C@H](CCCN)NC(=O)[C@H](C(C)C)NC(=O)[C@H](CC3CCCCC3)NC(=O)[C@H](CCN)NC(=O)[C@@H](CC(C)C)NC(=O)[C@H](C)N(C)C(=O)[C@H](Cc3ccc(O)cc3)NC(=O)[C@H](Cc3ccc(-c4ccccc4)cc3)NC(=O)[C@H](CC(C)C)NC2=O)c1` [Example 1251] ({CH2CO}-Y(Carboxymethyl)Y(Carboxymethyl)D[Phe(3-Me)]L[Bip]Y[NMeA][dL][Dab][Cha]V[Orn]C[Ac3c][AEEA][Aun]-OH; thioether N-14), the IC50 was determined as 11.8 nM.

For `Cc1cccc(C[C@@H]2NC(=O)[C@H](CC(=O)O)NC(=O)[C@H](Cc3ccc(OCC(=O)O)cc3)NC(=O)[C@H](CN)NC(=O)CSC[C@@H](C(=O)NC3(C(=O)NCCOCCOCC(=O)NCCCCCCCCCCC(=O)O)CC3)NC(=O)[C@H](CCCN)NC(=O)[C@H](C(C)C)NC(=O)[C@H](CC3CCCCC3)NC(=O)[C@H](CCN)NC(=O)[C@@H](CC(C)C)NC(=O)[C@H](C)N(C)C(=O)[C@H](Cc3ccc(O)cc3)NC(=O)[C@H](Cc3ccc(-c4ccccc4)cc3)NC(=O)[C@H](Cc3ccc(O)cc3)NC2=O)c1` [Example 1252] ({CH2CO}-[Dap]Y(Carboxymethyl)D[Phe(3-Me)]Y[Bip]Y[NMeA][dL][Dab][Cha]V[Orn]C[Ac3c][AEEA][Aun]-OH; thioether N-14), the IC50 amounted to 22.8 nM.

Take `Cc1cccc(C[C@@H]2NC(=O)[C@H](CC(=O)O)NC(=O)[C@H](Cc3ccc(OCC(=O)O)cc3)NC(=O)[C@H](Cc3ccc(OCC(=O)O)cc3)NC(=O)CSC[C@@H](C(=O)NC3(C(=O)NCCOCCOCC(=O)NCCCCCCCCCCC(=O)O)CC3)NC(=O)[C@H](CCCNC(=N)N)NC(=O)[C@H](C(C)C)NC(=O)[C@H](CC3CCCCC3)NC(=O)[C@H](CCN)NC(=O)[C@@H](CC(C)C)NC(=O)[C@H](C)N(C)C(=O)[C@H](Cc3ccc(O)cc3)NC(=O)[C@H](Cc3ccc(-c4ccccc4)cc3)NC(=O)[C@H](Cc3ccc(O)cc3)NC2=O)c1` [Example 1253] ({CH2CO}-Y(Carboxymethyl)Y(Carboxymethyl)D[Phe(3-Me)]Y[Bip]Y[NMeA][dL][Dab][Cha]VRC[Ac3c][AEEA][Aun]-OH; thioether N-14): the IC50 was determined as 16.6 nM. Next, `Cc1cccc(C[C@@H]2NC(=O)[C@H](CC(=O)O)NC(=O)[C@H](Cc3ccc(OCC(=O)O)cc3)NC(=O)[C@H](Cc3ccc(OCC(=O)O)cc3)NC(=O)CSC[C@@H](C(=O)N[C@@H](CCN)C(=O)NCCCCCCCCCCC(=O)O)NC(=O)[C@H](CCCN)NC(=O)[C@H](C(C)C)NC(=O)[C@H](CC3CCCCC3)NC(=O)[C@H](CCN)NC(=O)[C@@H](CC(C)C)NC(=O)[C@H](C)N(C)C(=O)[C@H](Cc3ccc(O)cc3)NC(=O)[C@H](Cc3ccc(-c4ccccc4)cc3)NC(=O)[C@H](C(C)C)NC2=O)c1` [Example 1254] ({CH2CO}-Y(Carboxymethyl)Y(Carboxymethyl)D[Phe(3-Me)]V[Bip]Y[NMeA][dL][Dab][Cha]V[Orn]C[Dab][Aun]-OH; thioether N-14): 12.5 nM. In the case of `Cc1cccc(C[C@@H]2NC(=O)[C@H](CC(=O)O)NC(=O)[C@H](Cc3ccc(OCC(=O)O)cc3)NC(=O)[C@H](CN)NC(=O)CSC[C@@H](C(=O)N[C@@H](CCN)C(=O)NCCCCCCCCCCC(=O)O)NC(=O)[C@H](CCCN)NC(=O)[C@H](C(C)C)NC(=O)[C@H](CC(C)C)NC(=O)[C@H](CCN)NC(=O)[C@@H](CC(C)C)NC(=O)[C@H](C)N(C)C(=O)[C@H](Cc3ccc(O)cc3)NC(=O)[C@H](Cc3ccc(-c4ccccc4)cc3)NC(=O)[C@H](Cc3ccc(O)cc3)NC2=O)c1` [Example 1255] ({CH2CO}-[Dap]Y(Carboxymethyl)D[Phe(3-Me)]Y[Bip]Y[NMeA][dL][Dab]LV[Orn]C[Dab][Aun]-OH; thioether N-14), the IC50 stood at 206 nM.

In the case of `CC(C)[C@@H]1NC(=O)[C@H](CC2CCCCC2)NC(=O)[C@H](CCN)NC(=O)[C@@H](C)NC(=O)[C@H](C)N(C)C(=O)[C@H](Cc2ccc(O)cc2)NC(=O)[C@H](Cc2ccc(-c3ccccc3)cc2)NC(=O)[C@H](Cc2ccc(O)cc2)NC(=O)[C@H](Cc2cccc(O)c2)NC(=O)[C@H](CC(=O)O)NC(=O)[C@H](Cc2ccc(OCC(=O)O)cc2)NC(=O)[C@H](CN)NC(=O)CSC[C@@H](C(=O)N[C@@H](CCN)C(=O)NCCCCCCCCCCC(=O)O)NC(=O)[C@H](CCCN)NC1=O` [Example 1256] ({CH2CO}-[Dap]Y(Carboxymethyl)D[mTyr]Y[Bip]Y[NMeA][dA][Dab][Cha]V[Orn]C[Dab][Aun]-OH; thioether N-14), the IC50 was determined as 502 nM. Next, `CC(C)C[C@H]1NC(=O)[C@H](C)N(C)C(=O)[C@H](Cc2ccc(O)cc2)NC(=O)[C@H](Cc2ccc(-c3ccccc3)cc2)NC(=O)[C@H](Cc2ccc(O)cc2)NC(=O)[C@H](Cc2cccc(O)c2)NC(=O)[C@H](CC(=O)O)NC(=O)[C@H](Cc2ccc(OCC(=O)O)cc2)NC(=O)[C@H](CN)NC(=O)CSC[C@@H](C(=O)N[C@@H](CCN)C(=O)NCCCCCCCCCCC(=O)O)NC(=O)[C@H](CCCN)NC(=O)[C@H](C(C)C)NC(=O)[C@H](CC2CCCCC2)NC(=O)[C@H](CCN)NC1=O` [Example 1257] ({CH2CO}-[Dap]Y(Carboxymethyl)D[mTyr]Y[Bip]Y[NMeA][dL][Dab][Cha]V[Orn]C[Dab][Aun]-OH; thioether N-14): 226 nM. Under `Cc1cccc(C[C@@H]2NC(=O)[C@H](CC(=O)O)NC(=O)[C@H](Cc3ccc(OCC(=O)O)cc3)NC(=O)[C@H](CN)NC(=O)CSC[C@@H](C(=O)N[C@@H](CCN)C(=O)NCCCCCCCCCCC(=O)O)NC(=O)[C@H]([C@@H](C)O)NC(=O)[C@H](C(C)C)NC(=O)[C@H](CC3CCCCC3)NC(=O)[C@H](CCN)NC(=O)[C@@H](CC(C)C)NC(=O)[C@H](C)N(C)C(=O)[C@H](Cc3ccc(O)cc3)NC(=O)[C@H](Cc3ccc(-c4ccccc4)cc3)NC(=O)[C@H](Cc3ccc(OCC(=O)O)cc3)NC2=O)c1` [Example 1258] ({CH2CO}-[Dap]Y(Carboxymethyl)D[Phe(3-Me)]Y(Carboxymethyl)[Bip]Y[NMeA][dL][Dab][Cha]VTC[Dab][Aun]-OH; thioether N-14) stands 19 nM.
